Results as given in ChEMBL document CHEMBL1909046, “DrugMatrix in vitro pharmacology data”.

Experiments:
Cytochrome P450 3A4 = Cytochrome P450 3A4 (Homo sapiens, UniProt P08684); conditions: bti-tn-5b1-4; note: in other assays of this panel Not Active means under 50% inhibition at 10 µM
[1] = biological target: T1, Angiotensin-converting enzyme (Oryctolagus cuniculus, UniProt P12822); assay type: tissue-based, Lung;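 note: enzymatic inhibition of angiotensin-converting enzyme measured with FAPGG as the substrate; in other assays of this panel Not Active means under 50% inhibition at 10 µM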
T1 sequence (P12822 whole entry): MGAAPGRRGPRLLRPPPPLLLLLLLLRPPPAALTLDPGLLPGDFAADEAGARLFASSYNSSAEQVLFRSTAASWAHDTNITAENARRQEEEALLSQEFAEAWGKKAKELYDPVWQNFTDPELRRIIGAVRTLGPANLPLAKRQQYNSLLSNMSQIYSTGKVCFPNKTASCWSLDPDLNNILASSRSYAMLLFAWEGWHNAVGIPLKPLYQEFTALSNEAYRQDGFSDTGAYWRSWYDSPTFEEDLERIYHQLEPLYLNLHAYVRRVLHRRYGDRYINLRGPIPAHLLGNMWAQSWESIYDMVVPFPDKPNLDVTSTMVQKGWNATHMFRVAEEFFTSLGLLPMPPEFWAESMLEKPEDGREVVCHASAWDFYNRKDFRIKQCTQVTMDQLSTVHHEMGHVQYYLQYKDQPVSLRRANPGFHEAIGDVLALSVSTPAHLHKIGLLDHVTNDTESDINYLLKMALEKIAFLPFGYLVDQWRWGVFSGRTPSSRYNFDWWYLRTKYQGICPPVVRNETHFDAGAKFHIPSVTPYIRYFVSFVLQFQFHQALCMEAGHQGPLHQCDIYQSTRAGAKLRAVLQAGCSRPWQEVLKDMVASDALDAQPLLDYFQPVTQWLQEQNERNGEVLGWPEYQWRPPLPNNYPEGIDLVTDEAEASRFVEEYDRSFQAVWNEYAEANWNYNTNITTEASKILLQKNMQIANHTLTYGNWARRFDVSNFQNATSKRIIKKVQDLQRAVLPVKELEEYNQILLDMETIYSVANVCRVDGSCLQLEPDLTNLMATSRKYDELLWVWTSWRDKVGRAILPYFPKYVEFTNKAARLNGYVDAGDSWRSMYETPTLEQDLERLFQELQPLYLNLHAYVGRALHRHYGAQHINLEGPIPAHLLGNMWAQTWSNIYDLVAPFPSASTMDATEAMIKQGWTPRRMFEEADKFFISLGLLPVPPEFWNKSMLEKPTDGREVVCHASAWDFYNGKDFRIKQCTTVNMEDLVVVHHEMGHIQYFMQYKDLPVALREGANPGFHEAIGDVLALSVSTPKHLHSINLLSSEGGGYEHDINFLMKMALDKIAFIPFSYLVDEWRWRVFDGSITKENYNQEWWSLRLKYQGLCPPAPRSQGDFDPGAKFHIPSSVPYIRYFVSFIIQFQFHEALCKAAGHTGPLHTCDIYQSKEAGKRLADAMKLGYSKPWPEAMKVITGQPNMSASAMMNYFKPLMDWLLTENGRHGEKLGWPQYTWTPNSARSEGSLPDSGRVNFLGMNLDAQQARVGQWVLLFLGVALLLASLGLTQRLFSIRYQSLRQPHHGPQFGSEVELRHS

[2] = biological target: 5-hydroxytryptamine receptor 1B (Rattus norvegicus, UniProt P28564); assay type: cell membranes, Wistar, Cerebral cortex, Membrane; note: in other assays of this panel Not Active means under 50% inhibition at 10 µM
[3] = biological target: C-C chemokine receptor type 5 (Homo sapiens, UniProt P51681); assay type: cell membranes, HEK293, Membrane; conditions: hek293; note: in other assays of this panel Not Active means under 50% inhibition at 10 µM
[4] = DRUGMATRIX: Phosphodiesterase PDE4 enzyme inhibition (substrate: [3H]cAMP + cAMP); conditions: u-937; Not Active = under 50% inhibition at 10 µM
Adenosine receptor A3 = biological target: T2, Adenosine receptor A3 (Homo sapiens, UniProt P0DMS8); assay type: cell membranes, CHO-K1, Membrane; conditions: cho-k1
T2 sequence (P0DMS8 whole entry): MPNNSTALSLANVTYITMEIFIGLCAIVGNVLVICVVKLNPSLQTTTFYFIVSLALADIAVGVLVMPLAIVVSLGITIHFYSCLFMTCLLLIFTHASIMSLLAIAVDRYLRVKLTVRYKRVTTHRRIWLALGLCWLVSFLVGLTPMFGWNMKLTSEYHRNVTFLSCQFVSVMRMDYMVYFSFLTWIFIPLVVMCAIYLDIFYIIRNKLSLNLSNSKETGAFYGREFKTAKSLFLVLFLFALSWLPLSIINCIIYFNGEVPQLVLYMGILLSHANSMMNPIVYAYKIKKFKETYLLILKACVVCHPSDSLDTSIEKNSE

Glucocorticoid receptor = biological target: T3, Glucocorticoid receptor (Homo sapiens, UniProt P04150); conditions: hela s3; note: in other assays of this panel Not Active means under 50% inhibition at 10 µM
T3 sequence (P04150 whole entry): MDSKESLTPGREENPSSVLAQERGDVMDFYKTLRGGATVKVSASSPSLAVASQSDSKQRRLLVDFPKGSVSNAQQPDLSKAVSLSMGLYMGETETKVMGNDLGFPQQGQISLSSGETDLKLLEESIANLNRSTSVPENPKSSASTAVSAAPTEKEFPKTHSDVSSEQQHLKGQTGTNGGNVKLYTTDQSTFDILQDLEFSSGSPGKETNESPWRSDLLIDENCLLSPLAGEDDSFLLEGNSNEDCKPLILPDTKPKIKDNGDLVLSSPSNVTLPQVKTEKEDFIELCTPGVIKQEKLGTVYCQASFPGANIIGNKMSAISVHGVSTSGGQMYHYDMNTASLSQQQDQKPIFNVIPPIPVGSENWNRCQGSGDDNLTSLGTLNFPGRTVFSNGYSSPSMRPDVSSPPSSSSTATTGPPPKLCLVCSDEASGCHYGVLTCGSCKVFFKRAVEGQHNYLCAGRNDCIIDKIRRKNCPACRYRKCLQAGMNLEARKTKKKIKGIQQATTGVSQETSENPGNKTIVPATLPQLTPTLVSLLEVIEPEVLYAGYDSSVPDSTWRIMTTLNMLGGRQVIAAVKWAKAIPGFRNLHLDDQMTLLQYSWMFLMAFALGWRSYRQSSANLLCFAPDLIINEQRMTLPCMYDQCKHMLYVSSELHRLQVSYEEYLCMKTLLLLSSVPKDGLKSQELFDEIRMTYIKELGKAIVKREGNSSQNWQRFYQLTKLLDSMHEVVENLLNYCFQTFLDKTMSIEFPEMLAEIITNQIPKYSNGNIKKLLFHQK

C-C chemokine receptor type 5, sequence (P51681 whole entry): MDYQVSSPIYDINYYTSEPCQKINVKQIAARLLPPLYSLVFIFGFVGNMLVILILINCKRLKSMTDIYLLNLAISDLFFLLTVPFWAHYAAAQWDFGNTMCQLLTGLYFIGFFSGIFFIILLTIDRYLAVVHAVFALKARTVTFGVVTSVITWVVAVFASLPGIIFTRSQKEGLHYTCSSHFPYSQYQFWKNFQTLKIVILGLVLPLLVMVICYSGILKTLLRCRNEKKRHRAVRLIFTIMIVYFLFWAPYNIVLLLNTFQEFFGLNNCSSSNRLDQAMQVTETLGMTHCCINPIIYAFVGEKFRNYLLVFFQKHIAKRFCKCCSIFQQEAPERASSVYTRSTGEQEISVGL
Cytochrome P450 3A4, sequence (P08684 whole entry): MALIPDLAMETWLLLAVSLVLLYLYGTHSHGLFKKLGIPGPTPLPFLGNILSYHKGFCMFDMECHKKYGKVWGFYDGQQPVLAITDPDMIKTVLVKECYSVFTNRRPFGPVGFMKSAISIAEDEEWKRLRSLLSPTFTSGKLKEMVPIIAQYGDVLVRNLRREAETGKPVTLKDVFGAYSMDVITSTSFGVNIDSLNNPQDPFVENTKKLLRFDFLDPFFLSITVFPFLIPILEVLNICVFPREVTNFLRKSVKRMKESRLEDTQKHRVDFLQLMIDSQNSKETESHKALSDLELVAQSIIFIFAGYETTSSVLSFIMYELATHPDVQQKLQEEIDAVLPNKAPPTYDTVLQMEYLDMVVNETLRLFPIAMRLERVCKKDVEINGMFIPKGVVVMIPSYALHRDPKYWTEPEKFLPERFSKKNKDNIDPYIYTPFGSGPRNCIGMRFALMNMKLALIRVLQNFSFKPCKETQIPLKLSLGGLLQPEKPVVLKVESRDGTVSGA
5-hydroxytryptamine receptor 1B, sequence (P28564 whole entry): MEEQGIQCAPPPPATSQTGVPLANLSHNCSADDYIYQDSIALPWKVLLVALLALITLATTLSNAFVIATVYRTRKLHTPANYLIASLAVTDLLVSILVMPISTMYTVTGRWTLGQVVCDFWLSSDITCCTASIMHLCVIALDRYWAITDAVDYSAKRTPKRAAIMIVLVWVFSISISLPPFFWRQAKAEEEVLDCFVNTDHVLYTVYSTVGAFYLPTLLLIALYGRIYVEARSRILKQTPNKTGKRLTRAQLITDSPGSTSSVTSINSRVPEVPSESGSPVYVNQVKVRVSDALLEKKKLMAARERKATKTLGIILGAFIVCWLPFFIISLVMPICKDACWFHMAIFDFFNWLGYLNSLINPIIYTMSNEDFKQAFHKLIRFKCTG

CC[C@]1(O)C[C@@H]2CN(CCc3c([nH]c4ccccc34)[C@@](C(=O)OC)(c3cc4c(cc3OC)N(C)[C@H]3[C@@](O)(C(=O)OC)[C@H](OC(C)=O)[C@]5(CC)C=CCN6CC[C@]43[C@@H]65)C2)C1 [VINBLASTINE]
Not Active: IC50 (Cytochrome P450 3A4) | Ki (Cytochrome P450 3A4) | IC50 [1] | IC50 [2] | IC50 [3] | IC50 [4] | Ki [4] | IC50 (Adenosine receptor A3) | IC50 (Glucocorticoid receptor)

C[C@@H](N)[C@H]1CC[C@H](C(=O)Nc2ccncc2)CC1 [Y-27632]
Not Active: IC50 (Cytochrome P450 3A4) | Ki (Cytochrome P450 3A4) | IC50 [1] | IC50 [2] | IC50 [3] | IC50 [4] | Ki [4] | IC50 (Adenosine receptor A3) | IC50 (Glucocorticoid receptor)

[Cl-].[Cl-].[Zn+2] [ZINC CHLORIDE]
Not Active: IC50 (Cytochrome P450 3A4) | Ki (Cytochrome P450 3A4) | IC50 [1] | IC50 [2] | IC50 [3] | IC50 [4] | Ki [4] | IC50 (Adenosine receptor A3) | IC50 (Glucocorticoid receptor)
